Assays:
[1] = system: G4 Tel (DNA, G4) AGGGTTAGGGTTAGGGTTAGGG; experiment: CD melting; conditions: K+ (concentration not restated for melting); 8 equiv. ligand; 16 μM
[2] = system: MYC (DNA, G4) TGAGGGTGGGTAGGGTGGGTAA; experiment: CD melting; conditions: K+ (concentration not restated for melting); 8 equiv. ligand; 16 μM
[3] = system: MYC (DNA, G4) TGAGGGTGGGTAGGGTGGGTAA; experiment: Hoechst 33258 fluorescent displacement; conditions: Hoechst 33258 displaced, quenching nearly 35%; tracking lost at higher ligand
[4] = system: G4 Tel (DNA, G4) AGGGTTAGGGTTAGGGTTAGGG; experiment: fluorescence titration, ligand emission, Hill fit; conditions: apparent, ligand 10 μM
[5] = system: MYC (DNA, G4) TGAGGGTGGGTAGGGTGGGTAA; experiment: fluorescence titration, ligand emission, Hill fit; conditions: K+ 100 mM, apparent, PBS 20 mM phosphate, pH 6.8, room temperature, ligand 10 μM
[6] = system: KRAS (DNA, G4) AGGGCGGTGTGGGAAGAGGGAAGAGGGGGAGG; experiment: fluorescence titration, ligand emission, Hill fit; conditions: K+ 100 mM, apparent, PBS 20 mM phosphate, pH 6.8, room temperature, ligand 10 μM
[7] = system: ds26 (DNA, duplex) CAATCGGATCGAATTCGATCCGATTG; experiment: fluorescence titration, ligand emission, Hill fit; conditions: K+ 100 mM, apparent, PBS 20 mM phosphate, pH 6.8, room temperature, ligand 10 μM

| SMILES | ΔTm [1] | ΔTm [2] | binding [3] | KD ([4]; K+ 100 mM, PBS 20 mM phosphate, pH 6.8, room temperature, Hill n 0.98) | KD ([4]; Na+ (Tris-NaCl), Tris-NaCl buffer, room temperature, Hill n 0.80, buffer alone quenches 31%) | KD ([5]; Hill n 1.33) | KD ([6]; Hill n 0.97) | KD ([7]; Hill n 0.98) | KD ([4]; K+ 100 mM, PBS 20 mM phosphate, pH 6.8, room temperature, Hill n 7.83) | KD ([4]; Na+ (Tris-NaCl), Tris-NaCl buffer, room temperature, Hill n 4.66, buffer alone quenches 44%) | KD ([5]; Hill n 4.68) | KD ([6]; Hill n 8.07) | KD ([7]; Hill n 15.27) |
| --- | --- | --- | --- | --- | --- | --- | --- | --- | --- | --- | --- | --- | --- |
| COc1ccc(-c2cc3c(cc2-c2cc[n+](C)cc2)c(=O)c2ccccc2n3C)cc1 | 0.9 °C | 10.7 °C | yes | 3.30 ± 0.11 µM | 2.08 ± 0.07 µM | 1.86 ± 0.04 µM | 9.62 ± 0.70 µM | 14.95 ± 1.00 µM |  |  |  |  |  |
| COc1ccc(-c2cc3c(cc2-c2ccncc2)c(=O)c2ccccc2n3C)cc1 | 1.7 °C | 6.2 °C |  |  |  |  |  |  | 2.58 ± 0.03 µM | 3.45 ± 0.05 µM | 10.85 ± 0.30 µM | 5.51 ± 0.079 µM | 3.73 ± 0.02 µM |

From PMC12004264 (2025)
